Data reported in patent US5856506A, “Phosphatase inhibitors and methods of use thereof” (University of Pittsburgh, priority 1997, dated 1999).

Tests used:
Format in all cases: biochemical
[1] = system: Recombinant human CDC25B; experiment: CDC25B phosphatase assay, GST fusion protein, fluorescein diphosphate; conditions: none = 100; 1 hour preincubation; concentration not given (0.3-100 μM tested)
Method: The compounds of the present invention are also capable of inhibiting dual specificity phosphatases, for example CDC25A and CDC25B. Phosphatases CDC25A and CDC25B are disclosed in U.S. Pat. No. 5,441,880. Inhibition of dual specificity phosphatases is defined herein as inhibition of the activity of CDC25A and/or CDC25B at a concentration of 100 μM of the inhibitor compound. In a preferred embodiment, the activity of the phosphatase is inhibited by at least 10%. In more preferred embodiments, the activity of the phophatase is inhibited by at least 25%, or even more preferably, by at least 50%. The ability of the compounds of the present invention to inhibit the phosphatases can be determined by measuring the effect of the compounds on the ability of CDC25 or CDC25B to dephosphorylate a substrate. Appropriate methods are known to those of ordinary skill in the art, and include, for example, calorimetric assays. A suitable assay is described in U.S. Pat. No. 5,441,880, the disclosure of which is incorporated herein by reference. […] The assay may be performed as a rapid calorimetric microtitration plate assay.
Compounds 1a-1r were assessed for ability to inhibit CDC25A and CDC25B activity. Recombinant human CDC25A and CDC25B were obtained as a glutahione-S-transferase (GST) fusion protein using human cDNA and standard molecular biological methods. The cDNA constructs are in a plasmid that is expressed in E. coli under the control of isopropyl-beta-D-[…] (IPTG). The bacterial pellet was disrupted by sonication, and centrifuged at 10,000×g. Using glutathione-agarose beads, the fusion protein was purified from postmicrosomal supernant fraction as described by Baratte et al. (1992) Anticancer Res. 12: 873-880. Phosphatase activity was assayed with a spectrofluorimeter under the following conditions: 1 unit (1 U=amount of protein that induces 33 fluoresence units/minute of product) of fusion protein in a final incubation mixture (150 μL) comprised of 25 mM Tris (pH=8.0), 5 mM EDTA, 33 μg/ml BSA, and 20 μM fluorescein diphosphate in 96-well microtiter plates. Plates were preincubated for 1 hour with 0 (control), 0.3, 1, 3, 10, 30, 100 μM compounds at room temperature. After the 1 hour incubation at room temperature, fluorescence of the fluorescein product (Ex. 485 nm; Em. 530 nm) were measured with a Biosystems Cytofluor II (Framingham, Mass.).

[2] = system: PP1; experiment: Phosphatase activity by [32P] release from phosphorylase-a or phosphohistone (Honkanen method); conditions: 100 μM inhibitor; none = 100
Method: (§1) It has been found in accordance with the present invention that compounds of formula I are capable of inhibiting serine/threonine protein phosphatases. Inhibition of serine/threonine protein phosphatases is defined herein as inhibition of the activity of one or more of PP1, PP2A or PP3 at a concentration of 100 μM or less of the inhibitor compound. In a preferred embodiment, the activity of the phosphatase is inhibited by at least 10%. In more preferred embodiments, the activity of the phophatase is inhibited by at least 25%, or even more preferably, by at least 50%. Inhibition of PP1, PP2A or PP3 can be assessed by methods known to one of ordinary skill in the art. Suitable assays are described, for example by Honkanen et al. (1994) Toxicon 32:339 and Honkanen et al. (1990) J. Biol. Chem. 265: 19401, the disclosures of which are incorporated herein by reference. Briefly, phosphatase activity is determined by quantifying the [^32 p] released from a ^32 p-labeled substrate such as phosphohistone or phosphorylase-a. Decreased [^32 p] release in the presence of the compounds of the present invention relative to control samples provides a measure of the ability of the compounds of the invention to inhibit PP1, PP2A or PP3.
(§2) Phosphatase activity and the inhibitory activity of the compounds of Table 1 were determined by the method of Honkanen et al. (1994) Toxicon 32:339. Briefly, phosphatase activity against phosphorylase-a or phosphohistone was 25 determined by the quantification of liberated [^32 p]. Assays, 80 μl total volume, containing 50 mM Tris-HCl, pH 7.4, 0.5 mM DTT, 1 mM EDTA (assay buffer) and [^32 p]phosphoprotein (1-2 μM PO4), were conducted as described previously (Honkanen et al., 1991 Mol. Pharmac. 40:577). Dephosphorylation reactions were routinely conducted for 5-10 min. using phosphorylase-a as a substrate and for 10-20 min. using phosphohistone. In all assays the dephosphorylation of substrate was kept to less than 10% of the total phosphorylated substrate available, and the reactions were adjusted to ensure that enzyme activity was linear with respect to enzyme concentration and time. [^32 p]Phosphate liberated by the enzymes was extracted as a phosphomolybdate complex and measured according to the methods of Killilea et al. (1978) Arch. Biochem. Biophys. 191:638. Inhibition of protein phosphatase activity by inhibitors was determined by adding the 100 μM of inhibitors to the enzyme mixture 5-10 min. prior to initiating the reaction with the addition of substrate.

[3] = target: PP2A (Bos taurus, UniProt P67774); experiment: as above; conditions: 100 μM inhibitor; none = 100; read-out: PP2A, percent inhibition relative to control (100%)
Chain of PP2A (P67774 whole entry): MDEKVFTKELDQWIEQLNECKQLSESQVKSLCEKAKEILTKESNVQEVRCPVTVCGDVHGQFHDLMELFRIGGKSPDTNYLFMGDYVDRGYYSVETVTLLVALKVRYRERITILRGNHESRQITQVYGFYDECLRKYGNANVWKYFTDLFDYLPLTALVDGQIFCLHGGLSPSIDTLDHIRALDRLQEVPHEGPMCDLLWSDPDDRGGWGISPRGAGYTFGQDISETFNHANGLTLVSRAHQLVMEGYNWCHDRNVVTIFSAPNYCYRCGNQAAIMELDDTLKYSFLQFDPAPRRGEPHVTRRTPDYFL
Method: as §1, §2

[4] = system: PP3; experiment: as above; conditions: 100 μM inhibitor; none = 100
Method: as §1, §2

| SMILES | CDC25B activity remaining, percent of control [1] | PP1 remaining activity, percent of control [2] | PP2A remaining activity, % of control at 100 µM [3] | PP3 remaining activity, percent of control [4] |
| --- | --- | --- | --- | --- |
| CCCCCCCCCC(=O)NC(CCC(=O)N(C)CCNC(=O)c1nc(-c2ccccc2)oc1C)C(=O)O (stereo not shown) [Compound 1a] | 106% | 121% | 100% | 76% |
| CCCCCCCCCC(=O)NC(CCC(=O)N(CCCCCC)CCNC(=O)c1nc(-c2ccccc2)oc1C)C(=O)O (stereo not shown) [Compound 1b] | 44% | 59% | 135% | 32% |
| CCCCCCCCCC(=O)NC(CCC(=O)N(CCNC(=O)c1nc(-c2ccccc2)oc1C)Cc1ccccc1)C(=O)O (stereo not shown) [Compound 1c] | 42% |  | 129% | 28% |
| CCCCCCCCCC(=O)NC(CCC(=O)N(CCCCCC)CCNC(=O)c1nc(-c2ccccc2)oc1-c1ccccc1)C(=O)O (stereo not shown) [Compound 1e] | 17% | 153% | 152% | 71% |
| Cc1oc(-c2ccccc2)nc1C(=O)NCCN(C)C(=O)CCC(NC(=O)CCc1ccccc1)C(=O)O (stereo not shown) [Compound 1g] | 61% | 53% | 109% | 21% |
| Cc1oc(-c2ccccc2)nc1C(=O)NCCN(Cc1ccccc1)C(=O)CCC(NC(=O)CCc1ccccc1)C(=O)O (stereo not shown) [Compound 1i] | 63% |  | 80% | 14% |
| CN(CCNC(=O)c1nc(-c2ccccc2)oc1-c1ccccc1)C(=O)CCC(NC(=O)CCc1ccccc1)C(=O)O (stereo not shown) [Compound 1j] | 90% | 80% | 72% | 38% |
| CCCCCCN(CCNC(=O)c1nc(-c2ccccc2)oc1-c1ccccc1)C(=O)CCC(NC(=O)CCc1ccccc1)C(=O)O (stereo not shown) [Compound 1k] | 76% | 48% | 67% | 24% |
| O=C(CCc1ccccc1)NC(CCC(=O)N(CCNC(=O)c1nc(-c2ccccc2)oc1-c1ccccc1)Cc1ccccc1)C(=O)O (stereo not shown) [Compound 1l] | 69% | 59% | 69% | 22% |
| Cc1oc(-c2ccccc2)nc1C(=O)NCCN(C)C(=O)CCC(NC(=O)C=Cc1ccccc1)C(=O)O (stereo not shown) [Compound 1m] | 45% | 111% | 108% | 60% |
| CCCCCCN(CCNC(=O)c1nc(-c2ccccc2)oc1C)C(=O)CCC(NC(=O)C=Cc1ccccc1)C(=O)O (stereo not shown) [Compound 1n] | 66% | 40% | 87% | 26% |
| Cc1oc(-c2ccccc2)nc1C(=O)NCCN(Cc1ccccc1)C(=O)CCC(NC(=O)C=Cc1ccccc1)C(=O)O (stereo not shown) [Compound 1o] | 66% | 64% | 88% | 13% |
| CN(CCNC(=O)c1nc(-c2ccccc2)oc1-c1ccccc1)C(=O)CCC(NC(=O)C=Cc1ccccc1)C(=O)O (stereo not shown) [Compound 1p] | 87% | 65% | 99% | 68% |
| CCCCCCN(CCNC(=O)c1nc(-c2ccccc2)oc1-c1ccccc1)C(=O)CCC(NC(=O)C=Cc1ccccc1)C(=O)O (stereo not shown) [Compound 1q] | 62% | 85% | 60% | 28% |
| O=C(C=Cc1ccccc1)NC(CCC(=O)N(CCNC(=O)c1nc(-c2ccccc2)oc1-c1ccccc1)Cc1ccccc1)C(=O)O (stereo not shown) [Compound 1r] | 56% | 53% | 68% | 15% |
